Assay [1] can be described thus: cytotoxicity toward NIH3T3 fibroblasts, dose response, counter-screen, cell-based, ATP luminescence, mouse fibroblasts (AID 2010).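 Further: cells exposed to compound for about 90 hours before reading.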 Type of assay: functional.
A short description of assay [2]: inhibitors of intracellular T. cruzi replication, confirmation, NIH3T3 host cells, beta-gal luminescence (AID 2044).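 Further: intracellular parasites grown in NIH/3T3 mouse fibroblasts as host cells; luminescent beta-galactosidase reporter signal from transgenic T. cruzi replicating inside host cells; inhibitors lower the luminescence signal.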 Type of assay: functional, cell-based.
For assay [3], the system named is Streptococcus. Briefly: Group A Streptococcus viability loss, dose response, counter-screen for streptokinase expression inhibitor project, luminescence, BacTiterGlo (AID 1915).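 Further: potency for reduction of bacterial viability or growth.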 Type of assay: functional, organism-based.
The target in assay [4] is T1, Streptokinase A (Streptococcus pyogenes serotype M1, UniProt P10520).
T1 sequence (P10520 whole entry): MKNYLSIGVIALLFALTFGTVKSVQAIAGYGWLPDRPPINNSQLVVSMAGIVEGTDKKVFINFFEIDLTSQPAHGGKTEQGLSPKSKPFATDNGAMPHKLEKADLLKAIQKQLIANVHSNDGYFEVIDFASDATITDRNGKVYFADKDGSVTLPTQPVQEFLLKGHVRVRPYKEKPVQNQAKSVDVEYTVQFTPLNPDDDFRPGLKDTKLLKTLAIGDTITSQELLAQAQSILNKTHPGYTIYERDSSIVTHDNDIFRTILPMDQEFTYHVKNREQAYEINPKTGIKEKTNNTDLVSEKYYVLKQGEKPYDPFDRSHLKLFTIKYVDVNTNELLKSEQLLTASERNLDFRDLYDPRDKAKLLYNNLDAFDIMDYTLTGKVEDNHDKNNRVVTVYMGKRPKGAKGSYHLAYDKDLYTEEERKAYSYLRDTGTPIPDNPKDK
The assay can be described thus: S. pyogenes streptokinase expression inhibitors, potency, dose response, plasminogen activation absorbance, OD405 (AID 1914).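 Further: secreted streptokinase activity via plasminogen activation per viability signal from cell pellet.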 Type of assay: functional, Streptococcus pyogenes M1 GAS.

The subject of assay [5] is Streptococcus sp. 'group A'. Briefly: growth inhibition of control SK(-) GAS strain, dose response, counter-screen for streptokinase expression inhibitor project, luminescence, kanamycin, BacTiterGlo, confirmation (AID 1900). Type of assay: functional, organism-based.
Assay [6] in a line: HEp-2 cell cytotoxicity, dose response, cytotoxicity control for RSV inhibitor project, HTS (AID 2410). Type of assay: functional. The note with it: human respiratory syncytial virus.
The test system of assay [7] is INS1. Briefly: beta cell apoptosis inhibitors, cytokine rescue, dose response, luminescence, retest (AID 449756).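 Further: cell death triggered by IL-1 beta plus TNF-alpha plus IFN-gamma mixture; protective hits raise ATP signal compared with cytokine alone wells.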 Type of assay: functional, cell-based. The note with it: Rattus norvegicus.

Consider 41 compounds from ChEMBL document CHEMBL1201862, “PubChem BioAssay data set” (2004).

The source made the active and inactive calls. For most assays here, no stated cut-off is given here; in the data, actives have a measured EC50 and inactives only a lower limit. A value given as a limit tells only on which side of the number the result lay.

As to `CCOc1ccccc1OCCOCCN1CCN(Cc2ccccc2)CC1`, the concentration for a half-maximal effect (EC50) in assay [1] is > 60 µM (not active); in assay [2] it was 0.633 µM (active).

Take `COc1ccc(C(=O)CC(Nc2ccc([N+](=O)[O-])cc2)c2ccc(Cl)cc2)cc1` (centres undefined): the EC50 was > 60 µM (not active) in assay [1] and 2.27 µM (active) in assay [2].

With `O=C(C1=C(O)C(=O)N(Cc2ccco2)C1c1cccc(Cl)c1)c1ccco1` (centres undefined), the EC50 is > 150 µM (not active) in assay [3], > 150 µM (not active) in assay [4] and 22.7 µM (active) in assay [5].

As to `CCCNC(=O)CCc1c(C)nc2c(c(C)nn2-c2ccc(C)cc2)c1C`, the EC50 in assay [1] is > 60 µM (not active); in assay [2] it was 1.8 µM (active).

As to `COc1ccccc1NC(=O)Nc1nc(CC(=O)N2CCN(c3ccccc3OC)CC2)cs1`, the CC50 in assay [6] was 15.2 µM (active).

`CC(=O)Nc1ccc(S(=O)(=O)N2c3ccccc3NC(=O)CC2C)c(Cl)c1` (centres undefined): in assay [7], the AC50 was > 260 µM (inactive).

For the compound `CC1CCN(C(=O)CCNS(=O)(=O)c2ccc(Br)cc2)CC1`, the AC50 in assay [7] is > 260 µM (inactive).

For the compound `Cc1csc2ncnc(N3CCN(S(=O)(=O)c4cccc(C(F)(F)F)c4)CC3)c12`, the AC50 in assay [7] is 3.86 µM (active).

As for `Clc1cccc(-c2cc3nc4c(c(N5CCN(c6cnccn6)CC5)n3n2)CCCC4)c1`, in assay [6], the CC50 was 35.2 µM (active).

Regarding `CC(C)c1nc(-c2ccccc2)c(-c2ccccc2)[nH]1`, the concentration at half-maximal activity (AC50) in assay [7] is 7.08 µM (active).

Turning to `O=C(CCN1CCN(C/C=C/c2ccccc2)CC1)Nc1cccc(F)c1`, the EC50 in assay [1] is 21.9 µM (active); in assay [2], 0.383 µM (active).

For `COc1ccc2c(c1)c(CC(=O)NCc1cc([N+](=O)[O-])ccc1O)c(C)n2C(=O)c1ccc(Cl)cc1`, the EC50 in assay [3] was > 150 µM (not active); in assay [4], 20.2 µM (active); in assay [5] it was 19.1 µM (active).

For `CCOc1ccccc1CN1CCCC(CNC(=O)Cc2ccc(OC)cc2)C1` (centres undefined), the concentration for a half-maximal effect (EC50) in assay [1] was > 60 µM (not active); in assay [2], 1.33 µM (active).

Consider `CCCCc1nc2cc(C(=O)N3CCC(OCCOC)CC3)ccc2o1`, for which the EC50 in assay [3], in assay [4] and in assay [5] was > 150 µM (not active) each time.

Regarding `CCCCN(CC)CCNC(=O)c1cn(-c2ccc(Cl)cc2)c(=O)c2ccccc12`, the results for the concentration for a half-maximal effect (EC50) in assay [1] and in assay [2] were > 60 µM (inconclusive) and 0.896 µM (active), respectively.

As to `CCCCCn1c(=O)c(C(=O)Nc2ncccc2C)c(O)c2ccccc21`, the half-maximal activity concentration (AC50) in assay [7] was 10.4 µM (active).

Regarding `COc1ccc(N2CCN(C(CNS(=O)(=O)c3cc(F)ccc3F)c3cccnc3)CC2)cc1` (centres undefined), the EC50 in assay [1] is > 60 µM (not active); in assay [2] it was 0.206 µM (active).

As for `CCOC(=O)c1ccc(Oc2c[nH]nc2-c2ccc(OCC(=O)NN)cc2O)cc1`, the EC50 in assay [3], in assay [4] and in assay [5] was > 150 µM (not active) in each case.

Take `COc1cccc(C(=O)Nc2cccc(-c3nnc(-c4ccccc4)o3)c2)c1`: the concentration for a half-maximal effect (EC50) was 57.9 µM (active) in assay [3], > 150 µM (not active) in assay [4] and 23.2 µM (active) in assay [5].

With `CCOC(=O)c1cnc2ccc(OCC)cc2c1N1CCN(c2ccccc2)CC1`, in assay [7], the half-maximal activity concentration (AC50) is 14.9 µM (active).

For `Cc1cc(C)nc(SCC(=O)NC2=NN=C(c3ccc(Br)cc3)CS2)n1`, the EC50 was > 60 µM (inconclusive) in assay [1]; 3.62 µM (active) in assay [3]; > 150 µM (not active) in assay [4]; 2.6 µM (active) in assay [5]; 1.65 µM (active) in assay [2]. For the same compound, the AC50 in assay [7] was 4.78 µM (active).

Regarding `COc1ccc(CCn2c(-c3cc([N+](=O)[O-])cc([N+](=O)[O-])c3)nc3nc4ccccc4nc32)cc1OC`, the EC50 in assay [1] was > 60 µM (not active); in assay [2] it was 0.105 µM (active).

`Cc1onc(-c2c(F)cccc2Cl)c1C(=O)NCc1ccc2c(c1)OCO2`: the 50% effective concentration (EC50) in assay [3], in assay [4] and in assay [5] was > 150 µM (not active) each time.

With `Cc1cccc2c1-c1sc(C(=O)N3CCc4ccccc4C3)cc1CO2`, the CC50 in assay [6] was 11.6 µM (active).

Regarding `CCCCOc1ccc(/C=C/C2=CC(C)(C)NC(S)=N2)cc1OCC`, the EC50 in assay [1] is > 60 µM (inconclusive); in assay [2], 0.774 µM (active).

On to `COc1cccc(C(=O)OC2CCN(C)CC2)c1`, for which the EC50 was > 30 µM (not active) in assay [1] and 0.233 µM (active) in assay [2].

With `CCCN=C(S)N1CCN(c2nc(C)nc3sc4c(c23)CCCC4)CC1`, the half-maximal cytotoxic concentration (CC50) in assay [6] is 11.2 µM (active).

Take `O=C(Nc1ccccc1N1CCCCC1)c1cc(S(=O)(=O)N2CCOCC2)ccc1Cl`: the CC50 in assay [6] was 21.7 µM (active).

Regarding `COc1cccc(C(=O)Nc2nc(-c3ccccc3)c(-c3ccccc3)o2)c1`, the EC50 in assay [3] was 5.62 µM (active); in assay [5] it was 1.44 µM (active).

Regarding `COc1cccc(N/C(C)=C/C(=O)c2ccc(Br)cc2)c1`, the CC50 in assay [6] was 25.5 µM (active).

Turning to `CCOC(=O)C1CCN(C(=O)C(=O)c2cn(CC(=O)N3CCCCCC3)c3ccccc23)CC1`, the values for the half-maximal effective concentration (EC50) in assay [1] and in assay [2] were > 60 µM (not active) and 0.763 µM (active), respectively.

Take `CCn1c(=O)c(C(=O)NNC(=O)c2ccc(Cl)cc2Cl)c(O)c2ccccc21`: the concentration for a half-maximal effect (EC50) in assay [3] was 7.58 µM (active); in assay [5], 3.62 µM (active).

`COC(=O)C1=C(c2ccccc2OCc2ccccc2)C[C@@H]2CC[C@H]1N2C(=O)NCc1ccc([N+](=O)[O-])cc1`: the half-maximal cytotoxic concentration (CC50) in assay [6] was 37.6 µM (active).

In the case of `COc1cc(/C(C)=C/c2ccccc2)c2c(c1)oc1ccccc12`, the EC50 was > 150 µM (not active) in assay [3], 20.9 µM (active) in assay [4] and 2.3 µM (active) in assay [5].

As to `CC(C)(C)c1ccc(OCC(=O)N2CCN(c3ncccn3)CC2)cc1`, the concentration for a half-maximal effect (EC50) in assay [3], in assay [4] and in assay [5] was > 150 µM (not active) each time.

As for `COc1ccc(C(=O)NC(=S)NNC(=O)COc2ccccc2)cc1`, the figures for the EC50 in assay [3] and in assay [5] were 3.64 µM (active) and 2.23 µM (active), respectively.

`Fc1cccc(Cc2noc(CN3CCCN(C4Cc5ccccc5C4)CC3)n2)c1`: the EC50 in assay [1] is 45.2 µM (active); in assay [2], 0.57 µM (active).

With `O=C1N=C(N/N=C/c2ccccc2O)SC1Cc1ccc(F)cc1` (centres undefined), the figures for the EC50 in assay [3], in assay [4] and in assay [5] were > 150 µM (not active), > 150 µM (not active) and 16 µM (active), respectively. Besides, the AC50 in assay [7] was 4.67 µM (active).

For `NC(=O)N/N=C(/CCCCCC/C(=N\NC(N)=O)c1ccccc1)c1ccccc1`, the concentration for a half-maximal effect (EC50) is > 150 µM (not active) in assay [3], > 150 µM (not active) in assay [4] and 26.6 µM (active) in assay [5].

Turning to `C=CCNC(=S)N/N=C/c1ccc(OCc2ccccc2Cl)cc1`, the EC50 in assay [1] was > 30 µM (not active); in assay [2], 1.65 µM (active).

`Cc1ccc(-n2c(-c3ccccc3)cc(/C=N/NC(=O)CC#N)c2-c2ccccc2)cc1`: the 50% effective concentration (EC50) in assay [1] was > 60 µM (not active); in assay [2] it was 1.72 µM (active).
